≈ marks a conversion by molar mass, not a printed value. Where two headings read alike, the source gives them in different places.
Key:
[1] = tested on: Klebsiella pneumoniae D 11750/08; experiment: Antibacterial microdilution broth method, K. pneumoniae; settings: K. pneumoniae D 11750/08; for MIC KP 24 h: 24 h incubation; for MIC KP 48 h: 48 h incubation
[2] = tested on: Trichosporon asahii 1188; experiment: Antifungal microdilution broth method, T. asahii; assay type: cell-based
Method: (§1) The antifungal properties were evaluated against five yeast strains, namely: Candida albicans ATCC 44859, Candida tropicalis 156, Candida krusei […], Candida glabrata 20/I, Trichosporon […] 1188 and three strains of filamentous fungi: Aspergillus fumigatus 231, Lichtheimia corymbifera 272, and Trichophyton interdigitale 445. A microdilution broth method was performed according to EUCAST II, III instructions with slight modifications. Briefly, tested compounds were dissolved in DMSO and diluted in a twofold manner with RPMI-1640 medium with L-glutamine, supplemented with 2% glucose (w/v) and buffered to pH 7.0 with 3 morpholinopropane-1-sulfonic acid (all components were purchased from Sigma-Aldrich, USA). […] Positive controls consisted of test microbe solely, while negative controls consisted of medium and DMSO. Internal quality control was included too. Visual inspection was used for MIC endpoints evaluation. The experiments were conducted in duplicates. For the results to be valid, the difference in MIC determined from two parallel measurements must not be greater than one step on the dilution scale. PABA and triazole antimycotic drug fluconazole were involved as the reference compounds.

[3] = tested on: Candida krusei E28; experiment: Antifungal microdilution broth method, C. krusei; assay type: cell-based; settings: Pichia kudriavzevii
Method: as §1

[4] = tested on: Mycobacterium kansasii 235/80; experiment: Antimycobacterial micromethod in Šula's medium, M. kansasii 235/80; assay type: cell-based
[5] = tested on: Candida albicans ATCC 44859; experiment: Antifungal microdilution broth method, C. albicans; assay type: cell-based
Method: as §1

[6] = tested on: Trichophyton interdigitale 445; experiment: Antifungal microdilution broth method, T. interdigitale; assay type: cell-based
Method: as §1

[7] = tested on: Candida tropicalis 156; experiment: Antifungal microdilution broth method, C. tropicalis; assay type: cell-based
Method: as §1

[8] = tested on: eight fungal strains; experiment: Antifungal activity; assay type: cell-based; settings: statement over the fungal panel; time not stated
Method: as §1

[9] = tested on: Staphylococcus aureus ATCC 29213, CCM 4223; experiment: Antibacterial microdilution broth method, S. aureus; assay type: cell-based
[10] = tested on: methicillin-resistant Staphylococcus aureus ATCC 43300, CCM 4750 (MRSA); experiment: Antibacterial microdilution broth method, MRSA; assay type: cell-based; settings: Staphylococcus aureus
[11] = tested on: Staphylococcus epidermidis H 6966/08; experiment: Antibacterial microdilution broth method, S. epidermidis; assay type: cell-based; settings: Staphylococcus epidermidis, H6966/08, S. epidermidis
[12] = tested on: Mycobacterium avium 330/88; experiment: Antimycobacterial micromethod in Šula's medium, M. avium; assay type: cell-based
[13] = tested on: Aspergillus fumigatus 231; experiment: Antifungal microdilution broth method, A. fumigatus; assay type: cell-based
Method: as §1

[14] = tested on: Enterococcus faecalis ATCC 29212, CCM 4224; experiment: Antibacterial microdilution broth method, E. faecalis; assay type: cell-based; settings: Enterococcus faecalis
[15] = tested on: Pseudomonas aeruginosa ATCC 27853, CCM 3955; experiment: Antibacterial microdilution broth method, P. aeruginosa; assay type: cell-based; settings: Pseudomonas aeruginosa
[16] = tested on: Mycobacterium tuberculosis H37Rv (331/88); experiment: Antimycobacterial micromethod in Šula's medium, M. tuberculosis; assay type: cell-based
[17] = tested on: Candida glabrata 20/I; experiment: Antifungal microdilution broth method, C. glabrata; assay type: cell-based; settings: Nakaseomyces glabratus
Method: as §1

[18] = tested on: Lichtheimia corymbifera 272; experiment: Antifungal microdilution broth method, L. corymbifera; assay type: cell-based
Method: as §1

[19] = tested on: M. kansasii 6509/96 (clinical isolate); experiment: Antimycobacterial micromethod in Šula's medium, M. kansasii 6509/96; assay type: cell-based; settings: Mycobacterium kansasii
[20] = tested on: ESBL-positive Klebsiella pneumoniae J 14368/08
[21] = tested on: Escherichia coli ATCC 25922, CCM 3954; experiment: Antibacterial microdilution broth method, E. coli; assay type: cell-based; settings: Escherichia coli
[22] = tested on: four Gram-positive and four Gram-negative strains; experiment: Antibacterial activity; assay type: cell-based; settings: time not stated
[23] = tested on: Mtb. 331/88 and three non-tuberculous mycobacterial strains; experiment: Antimycobacterial activity; assay type: cell-based; settings: statement over four mycobacterial strains; time not stated
[24] = 235/80, 168 h, 7 days incubation at 37 °C, read-out: MIC M. kansasii 235/80 7 d
[25] = 235/80, 336 h, 14 days incubation at 37 °C, read-out: MIC M. kansasii 235/80 14 d
[26] = 235/80, 504 h, 21 days incubation at 37 °C, read-out: MIC M. kansasii 235/80 21 d
[27] = ATCC44859, 24 h, read-out: MIC CA 24 h
[28] = ATCC44859, 48 h, read-out: MIC CA 48 h
[29] = 24 h incubation, read-out: MIC SA 24 h
[30] = 48 h incubation, read-out: MIC SA 48 h
[31] = 24 h incubation, read-out: MIC MRSA 24 h
[32] = 48 h incubation, read-out: MIC MRSA 48 h
[33] = 24 h incubation, read-out: MIC SE 24 h
[34] = 48 h incubation, read-out: MIC SE 48 h
[35] = 330/88, 336 h, 14 days incubation at 37 °C, read-out: MIC M. avium 330/88 14 d
[36] = 330/88, 504 h, 21 days incubation at 37 °C, read-out: MIC M. avium 330/88 21 d
[37] = 24 h incubation, read-out: MIC EF 24 h
[38] = 48 h incubation, read-out: MIC EF 48 h
[39] = P. aeruginosa, 24 h incubation, read-out: MIC PA 24 h
[40] = P. aeruginosa, 48 h incubation, read-out: MIC PA 48 h
[41] = 336 h, 14 days incubation at 37 °C, read-out: MIC Mtb. 331/88 14 d
[42] = 504 h, 21 days incubation at 37 °C, read-out: MIC Mtb. 331/88 21 d
[43] = 168 h, 7 days incubation at 37 °C, read-out: MIC M. kansasii 6509/96 7 d
[44] = 336 h, 14 days incubation at 37 °C, read-out: MIC M. kansasii 6509/96 14 d
[45] = 504 h, 21 days incubation at 37 °C, read-out: MIC M. kansasii 6509/96 21 d
[46] = 24 h incubation, read-out: MIC EC 24 h
[47] = 48 h incubation, read-out: MIC EC 48 h

In the case of `O=C(O)c1ccc(N=Cc2cc(O)ccc2O)cc1` [1i, 4-[(2,5-Dihydroxybenzylidene)amino]benzoic acid], the “MIC KP 24 h” value [1] is reported as 500 µM (≈ 129 µg/mL), the “MIC KP 48 h” value [1] is reported as 500 µM (≈ 129 µg/mL) and the MIC ([2]; 24 h, read-out: MIC TA 24 h) is reported as > 500 µM. The MIC ([2]; 48 h, read-out: MIC TA 48 h) was > 500 µM, the MIC ([3]; 24 h, read-out: MIC CK 24 h) was > 500 µM and the MIC ([3]; 48 h, read-out: MIC CK 48 h) was > 500 µM. It also gave an MIC [4, 24] of 500 µM (≈ 129 µg/mL), an MIC [4, 25] of 500 µM (≈ 129 µg/mL) and an MIC [4, 26] of 1000 µM (≈ 257 µg/mL). The MIC [5, 27] was 500 µM (≈ 129 µg/mL), the MIC [5, 28] was 500 µM (≈ 129 µg/mL) and the MIC ([6]; 72 h, read-out: MIC TI 72 h) was > 500 µM. The MIC ([6]; 120 h, read-out: MIC TI 120 h) was > 500 µM, the MIC ([7]; 24 h, read-out: MIC CT 24 h) was > 500 µM and the MIC ([7]; 48 h, read-out: MIC CT 48 h) was > 500 µM. The MIC [8] was ≥ 250 µM, the MIC [9, 29] was 500 µM (≈ 129 µg/mL) and the MIC [9, 30] was 500 µM (≈ 129 µg/mL). It also gave an MIC [10, 31] of 250 µM (≈ 64.3 µg/mL), an MIC [10, 32] of 250 µM (≈ 64.3 µg/mL) and an MIC [11, 33] of 250 µM (≈ 64.3 µg/mL). For the same molecule, the MIC [11, 34] was 250 µM (≈ 64.3 µg/mL), the MIC [12, 35] was 1000 µM (≈ 257 µg/mL) and the MIC [12, 36] was > 1000 µM. The MIC ([13]; 24 h, read-out: MIC AF 24 h) was > 500 µM, the MIC ([13]; 48 h, read-out: MIC AF 48 h) was > 500 µM and the MIC [14, 37] was 500 µM (≈ 129 µg/mL). It also gave an MIC [14, 38] of 500 µM (≈ 129 µg/mL), an MIC [15, 39] of 500 µM (≈ 129 µg/mL) and an MIC [15, 40] of 500 µM (≈ 129 µg/mL). The MIC ([15]; time not stated, read-out: MIC, P. aeruginosa) was 500 µM (≈ 129 µg/mL), the MIC [16, 41] was 500 µM (≈ 129 µg/mL) and the MIC [16, 42] was 1000 µM (≈ 257 µg/mL). For the same molecule, the MIC ([17]; 24 h, read-out: MIC CG 24 h) was 250 µM (≈ 64.3 µg/mL), the MIC ([17]; 48 h, read-out: MIC CG 48 h) was 250 µM (≈ 64.3 µg/mL) and the MIC ([18]; 24 h, read-out: MIC LC 24 h) was > 500 µM. For the same molecule, the MIC ([18]; 48 h, read-out: MIC LC 48 h) was > 500 µM, the MIC [19, 43] was 500 µM (≈ 129 µg/mL) and the MIC [19, 44] was 1000 µM (≈ 257 µg/mL). For the same molecule, the MIC [19, 45] was 1000 µM (≈ 257 µg/mL), the “MIC KP-E 24 h” value [20] was 500 µM (≈ 129 µg/mL) and the “MIC KP-E 48 h” value [20] was 500 µM (≈ 129 µg/mL). For the same molecule, the MIC [21, 46] was > 500 µM, the MIC [21, 47] was > 500 µM and the MIC ([22]; Staphylococcus aureus, MRSA, read-out: MIC, multiple Gram-positive strains including MRSA) was ≥ 250 µM.

For `COc1ccccc1C=Nc1ccc(C(=O)O)cc1` [1s, 4-[(2-Methoxybenzylidene)amino]benzoic acid], the “MIC KP 24 h” value [1] was >500 µM, the “MIC KP 48 h” value [1] was >500 µM and the “MIC, antimycobacterial activity” value [23] was “only negligible antimycobacterial activity”. The MIC ([2]; 24 h, read-out: MIC TA 24 h) was > 500 µM, the MIC ([2]; 48 h, read-out: MIC TA 48 h) was > 500 µM and the MIC ([3]; 24 h, read-out: MIC CK 24 h) was > 500 µM. The MIC ([3]; 48 h, read-out: MIC CK 48 h) was > 500 µM, the MIC [4, 24] was 1000 µM (≈ 255 µg/mL) and the MIC [4, 25] was 1000 µM (≈ 255 µg/mL). For the same molecule, the MIC [4, 26] was > 1000 µM, the MIC [5, 27] was > 500 µM and the MIC [5, 28] was > 500 µM. The MIC ([6]; 72 h, read-out: MIC TI 72 h) was > 500 µM, the MIC ([6]; 120 h, read-out: MIC TI 120 h) was > 500 µM and the MIC ([7]; 24 h, read-out: MIC CT 24 h) was > 500 µM. The MIC ([7]; 48 h, read-out: MIC CT 48 h) was > 500 µM, the “MIC, antifungal activity” value [8] was “no antimycotic potency” and the MIC [9, 29] was > 500 µM. The MIC [9, 30] was > 500 µM, the MIC [10, 31] was > 500 µM and the MIC [10, 32] was > 500 µM. For the same molecule, the MIC [11, 33] was > 500 µM, the MIC [11, 34] was > 500 µM and the MIC [12, 35] was > 1000 µM. The MIC [12, 36] was > 1000 µM, the MIC ([13]; 24 h, read-out: MIC AF 24 h) was > 500 µM and the MIC ([13]; 48 h, read-out: MIC AF 48 h) was > 500 µM. The MIC [14, 37] was > 500 µM, the MIC [14, 38] was > 500 µM and the MIC [15, 39] was > 500 µM. The MIC [15, 40] was > 500 µM, the MIC [16, 41] was 1000 µM (≈ 255 µg/mL) and the MIC [16, 42] was 1000 µM (≈ 255 µg/mL). For the same molecule, the MIC ([17]; 24 h, read-out: MIC CG 24 h) was > 500 µM, the MIC ([17]; 48 h, read-out: MIC CG 48 h) was > 500 µM and the MIC ([18]; 24 h, read-out: MIC LC 24 h) was > 500 µM. The MIC ([18]; 48 h, read-out: MIC LC 48 h) was > 500 µM, the MIC [19, 43] was 1000 µM (≈ 255 µg/mL) and the MIC [19, 44] was 1000 µM (≈ 255 µg/mL). The MIC [19, 45] was 1000 µM (≈ 255 µg/mL), the “MIC KP-E 24 h” value [20] was >500 µM and the “MIC KP-E 48 h” value [20] was >500 µM. The MIC [21, 46] was > 500 µM, the MIC [21, 47] was > 500 µM and the “MIC, antibacterial activity” value ([22]; statement over the bacterial panel) was “avoided any antibacterial action”.
